Ends that are not written are not given here.
Legend:
MDA-MB-435 cells = experiment: In vitro transfection with polymer:liposome:PCI-Luc complexes, luciferase activity; type: cell-based, human; details: for increase of transfection efficiency of branched polymer compared to the linear H-K polymer: with liposomes and 0.75 μg DNA, optimal dose; for transfection efficiency compared to H-K (19-mer): polymer:liposome:PCI-Luc; for transfection efficiency / uptake of liposomes (sequence order comparison): polymer mixed with DNA then liposomes, cell line not stated; for transfection efficiency of the liposome: PCI-Luc complex, polymer vs no polymer (length comparison): 7.5 nmole polymer
Procedure: (§1) 4.5×10^4 cells (MDA-MB-435, NIH3T3 or CHO) were initially plated into 24 well dishes. After 48 hours, when the cells were 60 and 80% confluent, cells were transfected with a plasmid encoding luciferase (PCI-Luc). In transfection experiments, the copolymer was initially incubated with PCI-Luc for 30 minutes in OptiM. The amount of copolymer which varied from 0.25 nmole to 15 nmole was mixed with the plasmid or oligonucleotide. The concentration of DNA varied from 0.25 μg to 0.75 μg. No visible aggregation of the polymer with the plasmid DNA was apparent at these concentrations. Cationic liposomes were then added, gently mixed, and then allowed to stand for an additional 30 minutes. The polymer:liposome:DNA complex was then diluted with either OptiM or OptiM+10% serum. In experiments utilizing lysomotropic agents, either chloroquine (Sigma, St. Louis, Mo.) or bafilomycin Al (Sigma) was added to the media at concentrations of 10 ng/ml and 25 μM, respectively. Four hours after transfection, the complexes were removed and DMEM with 10% serum was added. Forty-eight hours later, luciferase levels were measured with the Turner 20/20 luminometer. Duplicates were done for each concentration and each experiment was performed twice.

endothelial cells (BAEC) = experiment: In vitro transfection with polymer:liposome:DNA complexes, luciferase activity; type: cell-based, bovine
Procedure: To further investigate the extent to which histidine order could affect transfection efficiency, four polymer solutions containing a different linear histidine copolymer (H-K (19-mer) (SEQ ID NO:3), HHH-K (20-mer) (SEQ ID NO:6), HH-K (20-mer) (SEQ ID NO:5), or K-HK (21-mer) (SEQ ID NO:9)) were mixed in amounts ranging from 0.125 μl to 2.5 μl with 0.75 μg DNA. The concentration of each of the polymer solutions was […]. After 30 minutes, 1.5 μg of liposomes were added. After adding the delivery compositions to endothelial cells (BAEC) for 4 hours, the cells were washed, and luciferase activity measured 48 hours later (FIG. 14).

CHO cells = experiment: In vitro transfection with polymer:liposome:PCI-Luc complexes, luciferase activity; type: cell-based, Chinese hamster
Procedure: as §1

NIH-3T3 cells = experiment: as above; type: cell-based
Procedure: as §1

[1] = Effect of adding transition metal on transfection efficiency of polymer:liposome:DNA complexes; type: cell-based; details: Zn2+ 0 to 2.00 μg/ml added to H-K2b, H-K3b or H-K4b:liposome:DNA
Procedure: To determine the effect of adding transition metals on the transfection efficiency of a polymer:DNA complex, 0.25 μg H-K2b, 0.125 μg H-K3b, or 0.125 μg H-K4b were initially mixed with 0.75 μg DNA. After 30 minutes, cationic liposomes were added for 30 minutes. Zn^2+ was then added in an amount ranging from 0 to 2.00 μg/ml. As a control, various amounts of zinc were added to the liposome:DNA complex.

[K-H-K-H-K-H-K-H-K-G-K-H-K-H-K-H-K-H-K]4 K3 [H-K4b]
increase of transfection efficiency of branched polymer compared to the linear H-K polymer (MDA-MB-435 cells; absence of serum): approximately 10 fold

[K-H-K-H-K-H-K-H-K-G-K-H-K-H-K-H-K-H-K]3 K2 [H-K3b]
increase of transfection efficiency of branched polymer compared to the linear H-K polymer (MDA-MB-435 cells; absence of serum): approximately 10 fold

[KKHHHKHHHKKHHHKHHHKK] (KKHHHKHHHKKHHHKHHHKK) [HHH-K]
transfection of DNA in combination with liposomes, rank among four polymers (endothelial cells (BAEC); highest concentration of polymer used): most effective of the four | transfection of DNA in combination with liposomes, rank among four polymers (endothelial cells (BAEC); lower concentrations of polymer): not as effective as the other three polymers tested

CO/C1=C\C(C)=C\[C@@H](C)[C@@H](O)[C@@H](C)C/C(C)=C/C=C/[C@H](OC)[C@@H]([C@@H](C)[C@@H](O)[C@H](C)[C@@]2(O)C[C@@H](O)[C@H](C)[C@@H](C(C)C)O2)OC1=O [bafilomycin A1]
effect of lysosomotropic agent on transfection of the H-K: liposome: PCI-Luc triplex (CHO cells; CHO cells): significantly increased | increase of transfection efficiency of the H-K: liposome: PCI-Luc triplex by lysosomotropic agent (CHO cells; CHO cells, 10 ng/ml bafilomycin added with transfection agents): 5 fold | effect of lysosomotropic agent on transfection efficiency of the liposome: PCI-Luc complex (CHO cells; absence of the histidine copolymer): did not enhance the transfection efficiency | effect of lysosomotropic agent on transfection of the H-K: liposome: PCI-Luc triplex (NIH-3T3 cells): significantly increased

[K-S-K-S-K-S-K-S-K-G-K-S-K-S-K-S-K-S-K] (KSKSKSKSKGKSKSKSKSK) [S-K (19-mer)]
transfection efficiency compared to no polymer (MDA-MB-435 cells; absence of serum, with liposome: PCI-Luc): enhanced the transfection efficiency slightly more than when no polymer was added | transfection efficiency compared to H-K (19-mer) (MDA-MB-435 cells): significantly less effective

[K-H-K-H-K-H-K-H-K-G-K-H-K-H-K-H-K-H-K]2 K [H-K2b]
increase of transfection efficiency of branched polymer compared to the linear H-K polymer (MDA-MB-435 cells; absence of serum): approximately 10 fold | transport of DNA into cells (luciferase) relative to PEI (MDA-MB-435 cells; presence or absence of serum, H-K2b 0.25 μg + DNA 0.75 μg + liposomes 1.5 μg vs PEI 0.5 μg): more than 10 fold

[YGRKKRRQRRRGKHKHKHKHKHKHKHKHK] (YGRKKRRQRRRGKHKHKHKHKHKHKHKHK) [Y-HK]
transfection efficiency / uptake of liposomes (sequence order comparison) (MDA-MB-435 cells; presence or absence of serum): accelerated useful transfection efficiency

KHKHKHKHKGKHKHKHKHK-NH2 [H-K (19-mer), [K-H-K-H-K-H-K-H-K-G-K-H-K-H-K-H-K-H-K]]
morphologic evidence of cellular toxicity due to the polymer (MDA-MB-435 cells; even at concentrations of 0.5 mM): No morphologic evidence of cellular toxicity

CCN(CC)CCCC(C)Nc1ccnc2cc(Cl)ccc12 (centres unmarked) [chloroquine]
effect of lysosomotropic agent on transfection of the H-K: liposome: PCI-Luc triplex (CHO cells; CHO cells): significantly increased | effect of lysosomotropic agent on transfection of the H-K: liposome: PCI-Luc triplex (NIH-3T3 cells): significantly increased

H-R (19-mer): arginine-histidine copolymer, SEQ ID NO: 13 (RHRHRHRHRGRHRHRHRHR)
transfection efficiency compared to H-K (19-mer) (MDA-MB-435 cells): significantly better than H-K

[K-K-K-K-K-K-K-K-K-G-K-K-K-K-K-K-K-K-K] (KKKKKKKKKGKKKKKKKKK) [poly-L-lysine, reference compound]
effect of serum on transfection efficiency of polymer:liposome carrier (MDA-MB-435 cells; presence vs absence of 10% serum): markedly decreased in the presence of serum

[YGRKKRRQRRRHHKHHKHHKHHKHHK] (YGRKKRRQRRRHHKHHKHHKHHKHHK) [Y-HH]
transfection efficiency / uptake of liposomes (sequence order comparison) (MDA-MB-435 cells; presence or absence of serum): significantly enhanced the uptake of liposomes

[KHKHKHKHKGKHKHKHKHKGKHKHKHKHK] (KHKHKHKHKGKHKHKHKHKGKHKHKHKHK) [H-K (29 mer)]
transfection efficiency of the liposome: PCI-Luc complex, polymer vs no polymer (length comparison) (MDA-MB-435 cells): increased the transfection efficiency | transfection efficiency compared to the 13 mer (MDA-MB-435 cells; 7.5 nmole polymer with liposome and DNA): increased transfection efficiency more than the 13 mer

[Zn+2] [zinc]
effect of added zinc on transfection efficiency of polymer:liposome:DNA complexes [1]: can enhance transfection efficiency

[K-H-K-H-K-H-K-G-K-H-K-H-K] (KHKHKHKGKHKHK) [H-K (13 mer)]
transfection efficiency of the liposome: PCI-Luc complex, polymer vs no polymer (length comparison) (MDA-MB-435 cells): increased the transfection efficiency
